Starred links: 1 amine or outer side, 2 acyl side, 3 side chain; linkers in the order of their positions; H or OH if unused. Non-standard residues stand in square brackets, D forms with d. Residues, ends and D or L forms follow the SMILES beside them. X3 = CC(C)C[C@H](N[*:1])C(=S)N[C@H](CC(C)C)C(=O)[*:2]; NMeL = CN[C@@H](CC(C)C)C(=O)O
Columns and labels:
in vitro [1] = conditions: pig, simulated intestinal fluid
[2] = rat, in vivo, po, 10 mg/kg
Method: (§1) All animals were housed individually in the animal facility at Anthem Biosciences Pvt. Ltd and were acclimatized for 3 days. All animals were fasted overnight before dosing, whereas access to water was provided ad libitum. Peptides were administered orally and via s.c. route and blood samples were collected at different time points through a jugular vein catheter.

in vitro [3] = conditions: both, human, plasma
Method: (§2) Blood was freshly drawn from three healthy adults, two male and one person of 26–28 year old. […] The plasma was separated by centrifugation. […] For checking metabolic stability, the required volume of plasma was pre-incubated at 37 °C prior to the experiment for 2 min, followed by spiking with the peptides. At different time points, plasma was aliquoted. The supernatant was separated and used for RP-HPLC quantification. Rapid Equilibrium Dialysis (RED) assay was performed to assess the plasma protein binding of the peptides following the supplier’s protocol.

physchem = conditions: pH 7.4
in vitro [4] = conditions: both, human, plasma; remark: listed apart in the source
Method: as §2

[5] = type: physicochemical
[6] = HDX of amide protons by NMR in CDCl3:CD3OD (8:2)
Method: (§3) As hydrogen bonding and solvation of NH groups play an important role in the permeability of macrocycles, we determined the solvent accessibility of individual amide protons in 10 and 10a–10f by hydrogen-deuterium exchange (HDX) through NMR spectroscopy (Figs. 2a–c).
(§4) Spectra were recorded on a Bruker AV 500 MHz spectrometer at 25 °C.

[7] = type: physicochemical; remark: listed apart in the source
in vitro [8] = conditions: human, microsomes
Method: (§5) A stability assessment of the peptides was done in simulated gastric (SGF) and intestinal (SIF) fluids and human liver microsomes. The degradation kinetics of the aliquoted samples at desired time points were analyzed through RP-HPLC.

pepsin [9] = target: T1, pepsin (Sus scrofa, UniProt P00791); experiment: in vitro; conditions: simulated gastric fluid, pH 1.2
T1 sequence (P00791 60-385): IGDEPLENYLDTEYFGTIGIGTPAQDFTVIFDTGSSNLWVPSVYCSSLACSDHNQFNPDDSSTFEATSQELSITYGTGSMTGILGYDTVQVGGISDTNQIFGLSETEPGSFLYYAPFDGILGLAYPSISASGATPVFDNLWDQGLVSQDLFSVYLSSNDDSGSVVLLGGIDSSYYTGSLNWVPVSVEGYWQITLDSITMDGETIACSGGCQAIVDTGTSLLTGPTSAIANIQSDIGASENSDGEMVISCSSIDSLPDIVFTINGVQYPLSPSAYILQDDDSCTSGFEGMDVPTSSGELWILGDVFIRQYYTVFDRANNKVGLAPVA
Method: as §5

in vivo = conditions: male, Wistar, rat
Method: as §1

[10] = Retention in hydrophobic C18 column by HPLC; conditions: Supplementary Fig 3d, logD7.4 vs tR
[11] = PAMPA passive permeability; type: in vitro ADME; conditions: for Papp: Pe Avg;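 for all read-outs here: passive permeability across an artificial membrane in 96-well pre-coated PAMPA plates, which lack transporters and efflux systems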
Method: Encouraged by this, the passive permeability of the analogs was evaluated using an artificial membrane (PAMPA), which measures permeability of compounds in the absence of transporters and efflux systems[32].
96-well BD Corning® pre-coated PAMPA plates were used following the supplier’s protocol, details in Supplementary Information.

[12] = HDX of amide protons by NMR in DMSO-d6:D2O (8:2); conditions: HDX by NMR, 20% D2O in DMSO-d6
Method: as §3, §4

in vitro [13] = type: in vitro ADME, human
Method: (§6) The Caco-2 cell (HTB-37^TM from ATCC, procured from NCCS, Pune) monolayer was washed and pre-incubated at 37 °C and 5% CO2 for 30 min with HBSS-HEPES buffer containing 1% DMSO prior to experimentation. The assay was performed 21 days post-seeding of cells. TEER values were measured before starting and after the completion of the assay. Acceptor and donor well concentrations of the peptides and controls were assessed through LC-MS/MS.

Caco-2 cells = experiment: in vitro; type: in vitro ADME, human; conditions: Caco-2
Method: as §6

pepsin [14] = target: T1, pepsin; conditions: pH 1.2
Method: as §5

[15] = 20% CD3OD in CDCl3, % remaining after 24 hours
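Throughout, for Papp A-B avg (second block): Caco-2 monolayers used 21 days after seeding in HBSS-HEPES buffer with 1% DMSO, donor and acceptor levels quantified by LC-MS/MS, TEER checked before and after.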
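Throughout, for Papp A-B set 1 (second block): Caco-2 monolayers used 21 days after seeding in HBSS-HEPES buffer with 1% DMSO, donor and acceptor levels quantified by LC-MS/MS, TEER checked before and after.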
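Throughout, for Papp A-B set 2 (second block): Caco-2 monolayers used 21 days after seeding in HBSS-HEPES buffer with 1% DMSO, donor and acceptor levels quantified by LC-MS/MS, TEER checked before and after.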
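Throughout, for Papp B-A avg (second block): Caco-2 monolayers used 21 days after seeding in HBSS-HEPES buffer with 1% DMSO, donor and acceptor levels quantified by LC-MS/MS, TEER checked before and after.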

Method for human liver microsomes: as §5
Method for plasma proteins: as §2

For CC(C)C[C@@H]1NC(=O)[C@@H](CC(C)C)NC(=S)[C@H](CC(C)C)NC(=O)[C@H](Cc2ccc(O)cc2)NC(=O)[C@H]2CCCN2C(=O)[C@H](CC(C)C)NC1=O [10f] (cyclo(LL[dP]Y[X3])), the Half lives (human liver microsomes) was 42.3, the half-life (in vitro [1]) was 2.1 h and the remaining at 10 min (in vitro [1]) was 80.9%. It also gave a remaining at 0.5 h (in vitro [1]) of 67.2%, a remaining at 1 h (in vitro [1]) of 56.5% and a remaining at 2 h (in vitro [1]) of 48.1%. The remaining at 4 h (in vitro [1]) was 42.9%, the remaining at 8 h (in vitro [1]) was 31.7% and the remaining at 12 h (in vitro [1]) was 24.6%. The remaining at 24 h (in vitro [1]) was 17.2%, the AUClast p.o [2] was 120.8 ng·h/mL and the “time over which the peptide is detectable in plasma” value [2] was no less than 8 h. For the same molecule, the fraction unbound (in vitro [3]) was 0.02, the logD (physchem) was 1.53 and the half-life (in vitro [4]) was 18 h. For the same molecule, the remaining at 1 h (in vitro [4]) was 92%, the remaining at 3 h (in vitro [4]) was 87% and the remaining at 5 h (in vitro [4]) was 84%. For the same molecule, the remaining at 7 h (in vitro [4]) was 79%, the remaining at 9 h (in vitro [4]) was 63% and the remaining at 12 h (in vitro [4]) was 54%. It also gave a remaining at 24 h (in vitro [4]) of 38%, a remaining at 36 h (in vitro [4]) of 22% and a remaining at 48 h (in vitro [4]) of 25%. For the same molecule, the remaining at 60 h (in vitro [4]) was 26%, the remaining at 72 h (in vitro [4]) was 21% and the “% solubility” value [5] was 23%. For the same molecule, the “Half-life of D-Leu1 amide proton (HDX)” value ([6]; 20% CD3OD in CDCl3) was 0.167 h, the “Half-life of Leu2 amide proton (HDX)” value ([6]; 20% CD3OD in CDCl3) was 8.33 h and the “Half-life of Leu3 amide proton (HDX)” value ([6]; 20% CD3OD in CDCl3) was 3.27 h. For the same molecule, the “Half-life of Leu6 amide proton (HDX)” value ([6]; 20% CD3OD in CDCl3) was greater than 24 h, the “Half-life of Tyr5 amide proton (HDX)” value ([6]; 20% CD3OD in CDCl3) was greater than 24 h and the “% intact NH, Leu6” value [6, 15] was 52%. The “% intact NH, Tyr5” value [6, 15] was 67%, the logD heptane ethylene glycol [7] was 1.08 and the microsomal CLint (in vitro [8]) was 33 µL/min/mg. For the same molecule, the remaining at 5 min (in vitro [8]) was 78%, the remaining at 10 min (in vitro [8]) was 71% and the remaining at 20 min (in vitro [8]) was 62%. The remaining at 0.5 h (in vitro [8]) was 56%, the remaining at 0.75 h (in vitro [8]) was 48% and the remaining at 1 h (in vitro [8]) was 38%. For the same molecule, the half-life (pepsin [9]) was 1.3 h, the remaining at 5 min (pepsin [9]) was 78% and the remaining at 10 min (pepsin [9]) was 73%. It also gave a remaining at 20 min (pepsin [9]) of 67%, a remaining at 0.5 h (pepsin [9]) of 61% and a remaining at 1 h (pepsin [9]) of 54%. It also gave a remaining at 2 h (pepsin [9]) of 44%, a remaining at 4 h (pepsin [9]) of 34% and a remaining at 8 h (pepsin [9]) of 24%. The remaining at 12 h (pepsin [9]) was 15%, the remaining at 24 h (pepsin [9]) was 9% and the AUC(0-t) (in vivo; iv) was 390 ng·h/mL. For the same molecule, the Cmax (in vivo; iv) was 580 ng/mL, the MRT (in vivo; iv) was 1.1 h and the Vd (in vivo; iv) was 3.2 L/kg. The clearance (in vivo; iv) was 42.2 mL/min/kg, the bioavailability (in vivo; po) was 3.1% and the AUC(0-t) (in vivo; po, 10 mg/kg) was 121 ng·h/mL. The Cmax (in vivo; po, 10 mg/kg) was 61.7 ng/mL, the MRT (in vivo; po, 10 mg/kg) was 2.1 h and the level at 3 h (in vivo; po, 10 mg/kg) was 13.1 ng/mL. For the same molecule, the tR [10] was 14 min, the “Pe Avg” value [11] was 7.3 ×10⁻⁶ cm/s and the “Pe set1” value [11] was 7.27 ×10⁻⁶ cm/s. For the same molecule, the “Pe set2” value [11] was 9.86 ×10⁻⁶ cm/s, the “Pe set3” value [11] was 4.7 ×10⁻⁶ cm/s and the Papp [11] was 7.3 ×10⁻⁶ cm/s. The “Protein binding set1” value (plasma proteins) was 100%, the “Protein binding set2” value (plasma proteins) was 100% and the “Protein binding set3” value (plasma proteins) was 95%. The “Half lives (SIF) Avg” value (pancreatin) was 128 min, the “Half lives (SIF) set1” value (pancreatin) was 184 min and the “Half lives (SIF) set2” value (pancreatin) was 94 min. The “Half lives (SIF) set3” value (pancreatin) was 108 min, the “Half-life of D-Leu1 amide proton (HDX)” value [12] was 1 min and the “Half-life of Leu2 amide proton (HDX)” value [12] was 11.7 h. For the same molecule, the “Half-life of Leu3 amide proton (HDX)” value [12] was 13.2 h, the “Half-life of Leu6 amide proton (HDX)” value [12] was 12 h and the “Half-life of Tyr5 amide proton (HDX)” value [12] was 18 h. It also gave a Papp A→B (in vitro [13]; Caco-2, Papp A-B + Elacridar avg) of 6.8 ×10⁻⁶ cm/s, a Papp A→B (in vitro [13]; Caco-2, Papp A-B avg) of 3.01 ×10⁻⁶ cm/s and a Papp B→A (in vitro [13]; Caco-2, Papp B-A + Elacridar avg) of 8.9 ×10⁻⁶ cm/s. For the same molecule, the Papp B→A (in vitro [13]; Caco-2, Papp B-A avg) was 41.8 ×10⁻⁶ cm/s, the “Papp A-B avg (second block)” value (Caco-2 cells) was 3.01 ×10⁻⁶ cm/s and the “Papp A-B set 1 (second block)” value (Caco-2 cells) was 4.57 ×10⁻⁶ cm/s. The “Papp A-B set 2 (second block)” value (Caco-2 cells) was 1.45 ×10⁻⁶ cm/s, the “Papp B-A avg (second block)” value (Caco-2 cells) was 41.8 ×10⁻⁶ cm/s and the “Papp B-A set 1 (second block)” value (Caco-2 cells) was 39.7 ×10⁻⁶ cm/s. For the same molecule, the “Papp B-A set 2 (second block)” value (Caco-2 cells) was 43.9 ×10⁻⁶ cm/s.
CC(C)C[C@@H]1NC(=O)[C@H](Cc2ccc(O)cc2)NC(=O)[C@H]2CCCN2C(=O)[C@H](CC(C)C)NC(=O)[C@H](CC(C)C)N(C)C(=O)[C@@H](CC(C)C)NC1=O [10h] (cyclo(L[dL][NMeL]L[dP]Y)) gave a Half lives (human liver microsomes) of 28.7, a half-life (in vitro [1]) of 0.933 h and a remaining at 10 min (in vitro [1]) of 71%. It also gave a remaining at 0.5 h (in vitro [1]) of 63%, a remaining at 1 h (in vitro [1]) of 47% and a remaining at 2 h (in vitro [1]) of 27%. For the same molecule, the remaining at 4 h (in vitro [1]) was 16%, the remaining at 8 h (in vitro [1]) was 2.66% and the remaining at 12 h (in vitro [1]) was 1%. The “Fold Change of AUClast p.o” value [2] was 29, the fraction unbound (in vitro [3]) was 0.3 and the logD (physchem) was 1.46. The “Half lives (SGF) Avg” value (pepsin [14]) was 65.5 min, the “Half lives (SGF) set1” value (pepsin [14]) was 52 min and the half-life (in vitro [4]) was 18 h. For the same molecule, the remaining at 2 h (in vitro [4]) was 89%, the remaining at 4 h (in vitro [4]) was 77% and the remaining at 8 h (in vitro [4]) was 68%. The remaining at 16 h (in vitro [4]) was 56%, the remaining at 24 h (in vitro [4]) was 30% and the remaining at 48 h (in vitro [4]) was 13%. For the same molecule, the remaining at 72 h (in vitro [4]) was 3.27%, the microsomal CLint (in vitro [8]) was 49 µL/min/mg and the remaining at 2 min (in vitro [8]) was 99%. The remaining at 10 min (in vitro [8]) was 94%, the remaining at 20 min (in vitro [8]) was 65% and the remaining at 0.5 h (in vitro [8]) was 49%. The remaining at 0.75 h (in vitro [8]) was 27%, the remaining at 1 h (in vitro [8]) was 13% and the remaining at 2 min (pepsin [9]) was 97%. The remaining at 10 min (pepsin [9]) was 89%, the remaining at 20 min (pepsin [9]) was 79% and the remaining at 0.5 h (pepsin [9]) was 67%. For the same molecule, the remaining at 1 h (pepsin [9]) was 57%, the remaining at 2 h (pepsin [9]) was 26% and the remaining at 4 h (pepsin [9]) was 16%. It also gave a remaining at 8 h (pepsin [9]) of 8%, a remaining at 12 h (pepsin [9]) of 3% and an AUC(0-t) (in vivo; iv) of 212 ng·h/mL. For the same molecule, the Cmax (in vivo; iv) was 435 ng/mL, the MRT (in vivo; iv) was 0.4 h and the Vd (in vivo; iv) was 2.3 L/kg. It also gave a clearance (in vivo; iv) of 79.5 mL/min/kg, a bioavailability (in vivo; po) of 1.2% and an AUC(0-t) (in vivo; po, 10 mg/kg) of 25.9 ng·h/mL. For the same molecule, the Cmax (in vivo; po, 10 mg/kg) was 13.1 ng/mL, the MRT (in vivo; po, 10 mg/kg) was 1.3 h and the level at 3 h (in vivo; po, 10 mg/kg) was 3.2 ng/mL. The Papp [11] was 9.07 ×10⁻⁶ cm/s.

Source: PMC10539501 (Nature Communications, 2023)
